The source of these data is patent US7230002B2, “Dipeptidyl peptidase IV inhibitors; processes for their preparation and compositions thereof” (Glenmark Pharmaceuticals Ltd., priority 2004, dated 2007).

The term inhibition denotes the change of the read-out against control, counted positive when it falls. Broadly, the IC50 is the concentration at which inhibition is half-maximal.

The structures appear in SMILES notation. Structures can show the parent of a compound that is named as a salt.

In the first assay the target is T1, human recombinant Dipeptidyl peptidase IV enzyme (Homo sapiens, UniProt P27487).
T1 construct: purchased R & D Systems
T1 sequence (P27487 whole entry): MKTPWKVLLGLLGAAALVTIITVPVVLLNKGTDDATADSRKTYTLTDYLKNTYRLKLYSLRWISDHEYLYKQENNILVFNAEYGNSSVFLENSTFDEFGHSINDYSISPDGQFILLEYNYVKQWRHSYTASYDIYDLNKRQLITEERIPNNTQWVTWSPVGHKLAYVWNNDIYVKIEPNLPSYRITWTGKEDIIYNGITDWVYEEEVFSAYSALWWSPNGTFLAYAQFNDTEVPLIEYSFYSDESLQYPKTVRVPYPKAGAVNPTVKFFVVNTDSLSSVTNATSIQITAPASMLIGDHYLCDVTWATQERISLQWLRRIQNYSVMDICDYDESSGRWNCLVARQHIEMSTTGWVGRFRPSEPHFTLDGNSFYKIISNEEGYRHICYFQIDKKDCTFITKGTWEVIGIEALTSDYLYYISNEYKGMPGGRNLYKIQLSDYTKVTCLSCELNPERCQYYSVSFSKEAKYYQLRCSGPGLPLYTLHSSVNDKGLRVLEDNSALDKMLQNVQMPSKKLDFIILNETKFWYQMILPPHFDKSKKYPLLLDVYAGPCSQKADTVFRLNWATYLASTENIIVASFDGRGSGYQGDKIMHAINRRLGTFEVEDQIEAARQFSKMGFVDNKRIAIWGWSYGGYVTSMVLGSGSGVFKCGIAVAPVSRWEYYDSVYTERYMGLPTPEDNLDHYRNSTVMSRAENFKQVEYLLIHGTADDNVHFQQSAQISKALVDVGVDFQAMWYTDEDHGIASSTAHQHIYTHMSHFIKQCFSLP
Briefly: In-vitro DPP-IV assay (cleavage of Gly-Pro-AMC). Format: biochemical. Particulars: at 300 nM, n = 3, read-out: DPP-IV inhibition, percent inhibition at 300 nM. Here is the method: Protocol for In-Vitro DPP-IV Assay
DPPIV activity was determined by the cleavage rate of 7-amino-4-methyl coumarin (AMC) from synthetic substrate Glycyl-Prolyl-AMC. In brief, the assay was conducted by adding 10 ng of human recombinant Dipeptidyl peptidase IV enzyme (DPPIV, available commercially from R & D Systems) in 50 μl of the assay buffer (25 mM Tris, pH 7.4, 140 mM NaCl, 10 mM KCl, 1% BSA) to 96 well black flat bottom microtiter plates. The reaction was initiated by adding 50 μl of 100 μM substrate Gly-Pro-AMC. The incubation was carried out in the kinetic mode at 30° C. for 30 minutes. Fluorescence was measured using Fluorostar at excitation filter of 380 nm and emission filter of 460 nm). Test compounds and solvent controls were added as 1 μl additions. A standard curve of free amino methyl coumarin (AMC) was generated using 0–100 μM AMC in the assay buffer. The curve generated, which was linear was used for the interpolation of catalytic activity.
Test compounds dissolved in DMSO at 5–6 concentrations were tested in duplicate along with the solvent control and blank samples. Percent inhibition was calculated at each concentration with respect to the solvent control sample (no test compound added). IC50 values were calculated from 3 experiments using the prism software.
As to `N#Cc1ccc(OC[C@H]2CC[C@@H](NCC(=O)N3CCC[C@H]3C#N)C2)c2oc3ccccc3c12` [Example-51, (2S)-1-{2-[(3S,1R)-3-(1-Cyanodibenzo[b,d]furan-4-yloxymethyl)cyclopentylamino]-acetyl}-pyrrolidine-2-carbonitrile], the inhibition at 0.3 µM is 25%.

The assay is the same for the next values; noted with them: n = 3, substrate Gly-Pro-AMC, 30° C., 30 minutes, read-out: DPP-IV inhibition IC50.
As for `N#C[C@@H]1CCCN1C(=O)CN[C@H]1CC[C@@H](CS(=O)(=O)c2ccccn2)C1` [Example-37, (2S)-1-{2-[(1S,3R)-3-(2-Pyridylsulfonylmethyl)cyclopentylamino]acetyl}-pyrrolidine-2-carbonitrile], the IC50 is 66 nM.

As for `N#C[C@@H]1CCCN1C(=O)CN[C@@H]1CC[C@H](CSc2ncccn2)C1` [Example-41, (2S)-1-{2-[(3S,1R)-3-(2-Pyrimidinylsulfanylmethyl)cyclopentylamino]acetyl}-pyrrol-idine-2-carbonitrile], the IC50 was 15.8 nM.

Regarding `N#C[C@@H]1CCCN1C(=O)CN[C@@H]1CC[C@H](CSc2nc3ccccc3[nH]2)C1` [Example-42, (2S)-1-{2-[(3S,1R)-3-(1H-Benzo[d]imidazol-2-ylsulfanylmethyl)cyclopentylamino]-acetyl}-pyrrolidine-2-carbonitrile], the IC50 was 26.8 nM.

For the compound `N#C[C@@H]1CCCN1C(=O)CN[C@@H]1CC[C@H](COc2ccc([N+](=O)[O-])cc2)C1` [Example-44, (2S)-1-{2-[(3S,1R)-3-(4-Nitrophenoxymethyl)cyclopentylamino]acetyl}-pyrrolidine-2-carbonitrile], the IC50 is 25.8 nM.

Consider `N#C[C@@H]1CCCN1C(=O)CN[C@H]1CC[C@@H](COc2ccc([N+](=O)[O-])cc2)C1` [Example-45, (2S)-1-{2-[(3R,1S)-3-(4-Nitrophenoxymethyl)cyclopentylamino]acetyl}-pyrrolidine-2-carbonitrile], for which the IC50 came to 49.9 nM.

As to `N#Cc1ccc(OC[C@@H]2CC[C@H](NCC(=O)N3CCC[C@H]3C#N)C2)cc1` [Example-46], the IC50 came out at 11.6 nM.

With `N#Cc1ccc(OC[C@H]2CC[C@@H](NCC(=O)N3CCC[C@H]3C#N)C2)cc1` [Example-47, (2S)-1-{2-[(3S,1R)-3-(4-Cyanophenoxymethyl)cyclopentylamino]acetyl}-pyrrolidine-2-carbonitrile], the IC50 is 13.8 nM.

Consider `N#Cc1ccc(OC[C@H]2CC[C@@H](NCC(=O)N3CCC[C@H]3C#N)C2)cc1` [Example-48, (2S)-1-{2-[(3S,1R)-3-(4-Cyanophenoxymethyl)cyclopentylamino]acetyl}-pyrrolidine-2-carbonitrile hydrochloride], for which the IC50 was found to be 13.5 nM.

As for `N#Cc1ccc(OC[C@H]2CC[C@@H](NCC(=O)N3CCC[C@H]3C#N)C2)cc1F` [Example-49, (2S)-1-{2-[(3S,1R)-3-(4-Cyano-3-fluorophenoxymethyl)cyclopentylamino]acetyl}-pyrrolidine-2-carbonitrile], the IC50 was 23.5 nM.

For the compound `N#Cc1ccc(OC[C@H]2CC[C@@H](NCC(=O)N3C[C@@H](F)C[C@H]3C#N)C2)cc1F` [Example-50, (2S,4S)-1-{2-[(3S,1R)-3-(4-Cyano-3-fluorophenoxymethyl)cyclopentylamino]acetyl}-4-fluoro-pyrrolidine-2-carbonitrile], the IC50 was 2.56 nM.
